Data on three molecules can be found in patent publication US9662387B2, “Functional, cross-linked nanostructures for tandem optical imaging and therapy” (Mallinckrodt LLC, priority 2010, dated 2017).

Read-outs that look alike come from different tables or passages of the source.

Data set [1] in a line: Core loading of phototherapeutic agent into micelles. The conditions noted are these: poly(p-hydroxystyrene) core; shown previously. Type of data set: physicochemical. The method, then: Core loading was achieved by addition of MP-3397 stock solution (in DMF) into aqueous micelle solution followed by removal of organic solvent through dialysis. Alternatively, MP-3397 stock solution incubated with block copolymer (both in DMF) underwent co-assembly upon addition of water followed by dialysis. In an example, poly(p-hydroxystyrene) core achieved maximum of 5 wt % core loading whereas polystyrene core achieved ca. 15 wt %.

Data set [2] relates to KB cells. Description: EST-1 cell viability assay using KB cells (cell cytotoxicity). It is filed as cell-based. The conditions noted are these: Homo sapiens. The method, then: Table 3 provides 1050 data for the EST-1 cell viability assay using KB cells with 2 hour treatment with the particles described above. […] HPLC and MS analyses were in agreement with the determination of PTX concentration.
Table 5 provides results of cell cytotoxicity 1050 data for the EST-1 cell viability assay using KB cells with the particles described above. “ND” means not determined.

A short description of data set [3]: DOX release experiments from dialysis cassette, Higuchi fit and f1/f2 profile comparison. Type of data set: physicochemical. The conditions noted are these: at either pH value (5.0 or 7.4). The protocol: General procedure for the DOX release experiments: To a presoaked dialysis cassette (Slide-A-Lyzer, 10 kDa MWCO, Pierce Biotechnology, Rockford Ill., USA) was added ca. 7 mL of the DOX-loaded SCK or SC-rod solution. The cassette was stirred in a beaker containing 4 L of 5 mM PBS at pH 5.0 or 7.4 and 37° C. for a period of 52 hrs. Samples (ca. 1 mL) were removed from the cassette at 0, 1, 2, 3, 5, 7, 9, 15, 21, 27, 39 and 52 h and analyzed by UV-vis spectroscopy (488 nm, ε=13050 M^−1 cm^−1) and injected back to the cassette immediately after the analysis. DOX release data points were then fitted to a third order polynomial equation.
DOX-SCR or DOX-SCK (ca. 4 mL) was transferred to a presoaked dialysis cassette (Slide-A-Lyzer, 10 kDa MWCO, Pierce Biotechnology, Rockford Ill., USA). […] Samples (ca. 1.5 mL) were removed from the cassette at 0, 1, 2, 4, 6, 9, 12, 18, 24, 30, 40, 50 and 60 h, analyzed by UV-vis (488 nm, 6=12500 M^−1cm^−1 determined by a calibration curve in PBS), and then returned to the cassette. […]
To further quantitatively understand the differences and similarities in DOX release profiles, model-independent methods were used to calculate f1, the difference factor, and f2, the similarity factor (F. O. Costa, J. J. S. Sousa, A. Pais, S. J. Formosinho, J. Controlled Release 2003, 89, 199; J. W. Moore, H. H. Flanner, Pharm. Tech. 1996, 20, 67.): […]

Turning to `Oc1c(I)cc(I)c(-c2c(I)cc(I)c(O)c2I)c1I` [MP-4089], in data set [1], the core loading is 15 wt %.

On to `CC(=O)O[C@H]1C(=O)[C@@]2(C)[C@H]([C@H](OC(=O)c3ccccc3)[C@]3(O)C[C@H](OC(=O)[C@H](O)[C@@H](NC(=O)c4ccccc4)c4ccccc4)C(C)=C1C3(C)C)[C@]1(OC(C)=O)CO[C@@H]1C[C@@H]2O` [Paclitaxel, paclitaxel], for which the 50% inhibitory concentration (IC50) in data set [2] (2 hr treatment, 60 nm particles, read-out: PTX 2 hr IC50) was 0.05 µM; in data set [2] (72 hr, 60 nm particles, read-out: PTX 72 hr IC50), 0.007 µM; in data set [2] (after one day of loading, 10 nm vs. 20 nm particles, read-out: 2 hr IC50) it was 0.045 µM; in data set [2] (after two weeks of loading, 10 nm vs. 20 nm particles, read-out: 72 hr IC50) it was 0.002 µM.

With doxorubicin [free DOX], the “time to complete release from the dialysis cassette” value in data set [3] is given as at most 4 h. The “DOX release from the dialysis cassette” value in data set [3] (in 3 h) stood at 95%.
